Broadly, the inhibition is the share of the control response that was lost under treatment.

These results are taken from US10987349B2, “Antitumor agent and bromodomain inhibitor” (FUJIFILM Corporation, priority 2016, dated 2021).

The structures appear in SMILES notation.

The target of one assay is T1, BRD4 BD1 (Homo sapiens, UniProt O60885).
T1 construct: BRD2 BD1, BRD3 BD1 and BRD4 BD1 (Cisbio); purchased Cisbio
In words: Binding assay, BRD4 BD1 to acetylated histone H4 Peptide-Biotin (EPIgeneous Binding Domain Kit A). The conditions noted are these: test compound at 300 nmol/L; read-out: Binding inhibition percentage BRD4 BD1. On the procedure: (§1) BRD2 BD1, BRD3 BD1 and BRD4 BD1 (Cisbio), [Lys(Ac)5/8/12/16]-Histone H4(1-25)-GSGSK (Biotin) (hereinafter referred to as “Peptide-Biotin,” AnaSpec), and EPIgeneous (registered trademark) Binding Domain Kit A (Cisbio) were used to carry out an assay. That is to say, per well, 4 μL of BRD2 BD1, BRD3 BD1 or BRD4 BD1, which was adjusted to 20 nmol/L with Diluent buffer; 4 μL of 25 nmol/L Peptide-Biotin; 2 μL of Dilution buffer (Cisbio) containing dimethyl sulfoxide (DMSO) or a test compound that was serially diluted with DMSO; 5 μL of 2.5 nmol/L Streptavidin-d2; and 5 μL of Anti-Gst-Eu+^3+ Cryptate Conjugate 50-fold diluted with Detection Buffer were added to a 384-well plate (Corning).
(§2) The obtained mixture was left at rest at room temperature for 20 hours, and thereafter, the fluoresence intensity at 665 nm and 620 nm was measured using Envision plate reader (Perkin Elmer), so that the inhibition percentage (%) of the test compound against the binding of a bromodomain in a bromodomain-containing protein to Peptide-Biotin was calculated. Binding inhibition percentage (%)=[1−{(fluorescence intensity at 665 nm of test compound−added well)/(fluorescence intensity at 620 nm of test compound−added well)}/{(fluorescence intensity at 665 nm of DMSO−added well)/(fluorescence intensity at 665 nm of DMSO−added well)}]×100
(§3) Moreover, using Graphpad prism 5 (GraphPad software), 50% inhibitory concentration [IC50 (nmol/L)] was calculated according to a non-linear regression analysis (log (inhibitor) vs. response—Variable slope (four parameters)).
(§4) Regarding other test compounds, each compound was diluted with DMSO to a final concentration of 300 nmol/L by the same method as that described above, and the binding inhibition percentage (%) of each test compound at 300 nmol/L against the binding of bromodomain in a bromodomain-containing protein to acetylated histone was calculated.

A further assay has as its target T2, BRD3 BD2 (Homo sapiens, UniProt Q15059).
T2 construct: BRD2 BD2, BRD3 BD2 and BRD4 BD2 (Cisbio); purchased Cisbio
Kind of assay: Binding assay, BRD3 BD2 to acetylated histone H4 Peptide-Biotin (EPIgeneous Binding Domain Kit B). The conditions noted are these: test compound at 300 nmol/L; read-out: Binding inhibition percentage BRD3 BD2. As for the experimental part:
(§5) Moreover, BRD2 BD2, BRD3 BD2 and BRD4 BD2 (Cisbio), Peptide-Biotin (AnaSpec), and EPIgeneous (registered trademark) Binding Domain Kit B (Cisbio) were used to carry out an assay. That is, per well, 4 μL of BRD2 BD2, BRD3 BD2 or BRD4 BD2, which was adjusted to 20 nmol/L with Diluent buffer; 4 μL of 250 nmol/L Peptide-Biotin; 2 μL of Dilution buffer (Cisbio) containing DMSO or a test compound that was serially diluted with DMSO; 5 μL of 25 nmol/L Streptavidin-XL665; 5 μL of Anti-Gst-Eu+^3+ Cryptate Conjugate 50-fold diluted with Detection Buffer were added to a 384-well plate (Corning).
as §2, §3, §4

Another assay concerns the target T3, BRD4 BD2 (Homo sapiens, UniProt O60885).
T3 construct: BRD2 BD2, BRD3 BD2 and BRD4 BD2 (Cisbio); purchased Cisbio
Kind of assay: Binding assay, BRD4 BD2 to acetylated histone H4 Peptide-Biotin (EPIgeneous Binding Domain Kit B). Particulars: test compound at 300 nmol/L; read-out: Binding inhibition percentage BRD4 BD2. On the procedure: as §5, §2, §3, §4

The next assay concerns the target T4, BRD3 BD1 (Homo sapiens, UniProt Q15059).
T4 construct: BRD2 BD1, BRD3 BD1 and BRD4 BD1 (Cisbio); purchased Cisbio
Kind of assay: Binding assay, BRD3 BD1 to acetylated histone H4 Peptide-Biotin (EPIgeneous Binding Domain Kit A). Particulars: test compound at 300 nmol/L; read-out: Binding inhibition percentage BRD3 BD1. As for the experimental part: as §1, §2, §3, §4

Another assay concerns the target T5, BRD2 BD1 (Homo sapiens, UniProt P25440).
T5 construct: BRD2 BD1, BRD3 BD1 and BRD4 BD1 (Cisbio); purchased Cisbio
In words: Binding assay, BRD2 BD1 to acetylated histone H4 Peptide-Biotin (EPIgeneous Binding Domain Kit A). Particulars: test compound at 300 nmol/L; read-out: Binding inhibition percentage BRD2 BD1. On the procedure: as §1, §2, §3, §4

In a further assay the target is T6, BRD2 BD2 (Homo sapiens, UniProt P25440).
T6 construct: BRD2 BD2, BRD3 BD2 and BRD4 BD2 (Cisbio); purchased Cisbio
T6 sequence (P25440 344-453 limits assumed): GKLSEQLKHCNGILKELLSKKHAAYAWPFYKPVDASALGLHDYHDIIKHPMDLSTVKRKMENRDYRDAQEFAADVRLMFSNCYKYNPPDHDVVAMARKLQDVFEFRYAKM
Kind of assay: Binding assay, BRD2 BD2 to acetylated histone H4 Peptide-Biotin (EPIgeneous Binding Domain Kit B). Particulars: test compound at 300 nmol/L; read-out: Binding inhibition percentage BRD2 BD2. As for the experimental part:
as §5, §2, §3, §4

T5 sequence (P25440 74-180 limits assumed): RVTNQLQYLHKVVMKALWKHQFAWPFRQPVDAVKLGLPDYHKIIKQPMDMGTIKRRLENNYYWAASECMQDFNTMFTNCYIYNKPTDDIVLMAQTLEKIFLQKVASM
T2 sequence (Q15059 306-415 limits assumed): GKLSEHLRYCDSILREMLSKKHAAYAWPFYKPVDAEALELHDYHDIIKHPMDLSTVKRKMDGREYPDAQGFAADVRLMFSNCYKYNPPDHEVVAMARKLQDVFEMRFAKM
T4 sequence (Q15059 34-140 limits assumed): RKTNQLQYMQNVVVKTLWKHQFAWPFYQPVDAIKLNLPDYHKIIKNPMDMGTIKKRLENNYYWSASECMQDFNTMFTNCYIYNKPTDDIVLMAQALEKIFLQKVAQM

Regarding `CCn1c(=O)cc(N2CCOCC2)c2cc(-c3nccn3-c3ccccc3)ccc21` [Example 257, 1-ethyl-4-(morpholin-4-yl)-6-(1-phenyl-1H-imidazol-2-yl)quinolin-2(1H)-one], the inhibition at 0.3 µM was found to be 95% on BRD4 BD1; 91% on BRD3 BD2; 88% at BRD4 BD2; 92% at BRD3 BD1; 84% at BRD2 BD1; 85% on BRD2 BD2.

As to `CCn1c(=O)cc(N2CCOCC2)c2cc(-c3ccccc3-c3ccccc3)ccc21` [Example 258, 6-(biphenyl-2-yl)-1-ethyl-4-(morpholin-4-yl)quinolin-2(1H)-one], the inhibition at 0.3 µM on BRD4 BD1 stood at 64%; at BRD3 BD2, 83%; on BRD4 BD2 it was 72%; on BRD3 BD1, 67%; on BRD2 BD1, 26%; at BRD2 BD2, 81%.

`CCn1c(=O)cc(N2CCOCC2)c2cc(-n3c(-c4ccccc4)cn(CCN4CCOCC4)c3=O)ccc21` [Example 260]: the inhibition at 0.3 µM on BRD4 BD1 was found to be 94%; at BRD3 BD2 it was 91%; at BRD4 BD2 it was 88%; on BRD3 BD1, 93%; at BRD2 BD1, 88%; at BRD2 BD2 it was 87%.

For `CCn1c(=O)cc(N2CCOCC2)c2cc(-n3c(-c4ccccc4)cn(CCO)c3=O)ccc21` [Example 262, 1-ethyl-6-(3-(2-hydroxyethyl)-2-oxo-5-phenyl-2,3-dihydro-1H-imidazol-1-yl)-4-(morpholin-4-yl)quinolin-2(1H)-one], the inhibition at 0.3 µM on BRD4 BD1 stood at 94%; on BRD3 BD2, 92%; on BRD4 BD2, 88%; on BRD3 BD1, 94%; on BRD2 BD1, 87%; on BRD2 BD2, 89%.

As for `CCCCn1cc(-c2ccccc2)n(-c2ccc3c(c2)c(N2CCOCC2)cc(=O)n3CC)c1=O` [Example 264, 6-(3-butyl-2-oxo-5-phenyl-2,3-dihydro-1H-imidazol-1-yl)-1-ethyl-4-(morpholin-4-yl)quinolin-2(1H)-one], the inhibition at 0.3 µM on BRD4 BD1 came out at 95%; at BRD3 BD2, 91%; at BRD4 BD2 it was 88%; at BRD3 BD1 it was 94%; on BRD2 BD1, 92%; on BRD2 BD2, 88%.

For the molecule `CCCn1cc(-c2ccccc2)n(-c2ccc3c(c2)c(N2CCOCC2)cc(=O)n3CC)c1=O` [Example 265, 1-ethyl-4-(morpholin-4-yl)-6-(2-oxo-5-phenyl-3-propyl-2,3-dihydro-1H-imidazol-1-yl)quinolin-2(1H)-one], the inhibition at 0.3 µM at BRD4 BD1 came to 94%; on BRD3 BD2, 92%; at BRD4 BD2 it was 87%; on BRD3 BD1, 95%; at BRD2 BD1 it was 91%; at BRD2 BD2, 89%.

Take `CCn1cc(-c2ccccc2)n(-c2ccc3c(c2)c(N2CCOCC2)cc(=O)n3CC)c1=O` [Example 266, 1-ethyl-6-(3-ethyl-2-oxo-5-phenyl-2,3-dihydro-1H-imidazol-1-yl)-4-(morpholin-4-yl)quinolin-2(1H)-one]: the inhibition at 0.3 µM at BRD4 BD1 came out at 93%; at BRD3 BD2, 91%; at BRD4 BD2 it was 88%; on BRD3 BD1, 94%; on BRD2 BD1, 91%; at BRD2 BD2, 90%.

As for `CCn1c(=O)cc(C2CC2)c2cc(-n3c(-c4ccc(C(F)(F)F)cc4)cn(C)c3=O)ccc21` [Example 267, 4-cyclopropyl-1-ethyl-6-(3-methyl-2-oxo-5-(4-(trifluoromethyl)phenyl)-2,3-dihydro-1H-imidazol-1-yl)quinolin-2(1H)-one], the inhibition at 0.3 µM worked out at 68% on BRD4 BD1; 90% on BRD3 BD2; 87% on BRD4 BD2; 53% at BRD3 BD1; 32% on BRD2 BD1; 87% at BRD2 BD2.
